Results reported in patent US20130172847A1, “Compositions for Providing Vitamin D Year Round and Uses Thereof” (priority 2002, published 2013).

Key:
[1] = Conversion of 7-DHC and/or T3 to PreD3 in ethanol under winter natural sunlight; assay type: physicochemical
From the text: (§1) In contrast, compositions comprising increasing amounts of T3 produce increasing amounts of PreD3 when exposed to winter sunlight.
(§2) Conversion of 7-Dehydrocholesterol (7-DHC) and/or Tachysterol (T3) to Previtamin D3 (PreD3)

[2] = Conversion of 7-DHC and/or T3 to PreD3 in cream under winter natural sunlight; assay type: physicochemical; settings: Cream (1 g); natural sunlight 5-60 min; start 7-DHC 1.0 μg, T3 0 μg
From the text: as §1, §2

[3] = human skin or organic solvent exposed to 295 nm radiation; cited from earlier work
[4] = Conversion of 7-DHC and/or T3 to PreD3 in cream under artificial UVB light (simulates summer sunlight); assay type: physicochemical; settings: for % Yield / PreD3 Formed: Cream (1 g), artificial UVB 2 min
From the text: as §1, §2

[5] = cited from earlier work
[6] = Ethanol (1 ml), natural sunlight 90 min, start 7-DHC 0 μg, T3 10 μg

| SMILES | % Yield ([1]; Ethanol (1 ml), natural sunlight 90 min, start 7-DHC 10 μg, T3 0 μg) [%] | conversion to PreD3 when exposed to winter sunlight (in words) ([1]; winter natural sunlight, summary of the table) | % Yield [2] [%] | provitamin D3 converted to previtamin D3 [3] | % Yield ([4]; start 7-DHC 1.0 μg, T3 0 μg) [%] | PreD3 Formed ([4]; start 7-DHC 1.0 μg, T3 0 μg) [µg] | conversion to PreD3 when exposed to artificial UVB light (in words) [4] | portion of tachysterol among photoproducts ([5]; exposed to light in the range of 254 nm) | previtamin D3 produced ([5]; irradiated at 0° C. with 254 nm light, thereafter (0° C.) with 350 nm light) [%] | % Yield [1, 6] [%] | PreD3 Formed [1, 6] [µg] | % Yield ([4]; start 7-DHC 0 μg, T3 1 μg) [%] | PreD3 Formed ([4]; start 7-DHC 0 μg, T3 1 μg) [µg] |
| --- | --- | --- | --- | --- | --- | --- | --- | --- | --- | --- | --- | --- | --- |
| CC(C)CCC[C@@H](C)[C@H]1CC[C@H]2C3=CC=C4C[C@@H](O)CC[C@]4(C)[C@H]3CC[C@]12C [7-DHC, 7-Dehydrocholesterol] | 0 | inefficiently converted to PreD3 | 0 | up to 65% | 26 | 0.26 | converted to PreD3 | about 75% | ≤ 83 | – | – | – | – |
| CC1=C(/C=C\C2=CCC[C@]3(C)[C@@H]([C@H](C)CCCC(C)C)CC[C@@H]23)C[C@@H](O)CC1 [T3, Tachysterol] | – | – | – | – | – | – | converted to PreD3 | – | – | 77 | 7.1 | 52 | 0.52 |
